BindingDB's records for doi:10.1021/jm00103a005 (National Institute On Drug Abuse, 1993)
Counter-ions that a name gives are not always drawn.

What was measured:
[1] = target: Sigma non-opioid intracellular receptor 1 (Cavia porcellus) (UniProt Q60492); assay: Inhibition of specific binding of [125I]-PIPAG to sigma binding site in Guinea pig brain membranes
[2] = target: Sigma non-opioid intracellular receptor 1 (Cavia porcellus) (UniProt Q60492); assay: Inhibition of specific binding of [3H]NANM of sigma binding site in Guinea pig brain membranes
[3] = target: Sigma non-opioid intracellular receptor 1 (Cavia porcellus) (UniProt Q60492); assay: Inhibition of specific binding of [3H]DTG to sigma binding site in Guinea pig brain membranes
[4] = Inhibition of specific binding of [3H]DTG to sigma receptor in Guinea pig brain membranes
[5] = Inhibition of specific binding of [3H]3-PPP to sigma binding site in Guinea pig brain membranes
[6] = Inhibition of specific binding of [3H]3-PPP to sigma receptor in Guinea pig brain membranes

Chain of Sigma non-opioid intracellular receptor 1 (Cavia porcellus) (Q60492 whole entry, looked up): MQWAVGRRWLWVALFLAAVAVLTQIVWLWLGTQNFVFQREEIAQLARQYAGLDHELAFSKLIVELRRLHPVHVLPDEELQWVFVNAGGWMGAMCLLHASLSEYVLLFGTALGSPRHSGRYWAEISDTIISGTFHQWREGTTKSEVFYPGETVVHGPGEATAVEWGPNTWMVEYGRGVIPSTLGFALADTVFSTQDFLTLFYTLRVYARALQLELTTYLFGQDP

Row | Structure (SMILES) | IC50 [1] | IC50 [2] | IC50 [3] | IC50 [4] | IC50 [5] | IC50 [6]
1 | CN1CCc2cccc3c2[C@H]1Cc1ccc(O)c(O)c1-3 [APOKYN] | > 10 µM | > 31 µM | > 10 µM | – | – | –
2 | C=CCN1CC[C@]23c4c5ccc(O)c4O[C@H]2[C@@H](O)C=C[C@H]3[C@H]1C5 [NALORPHINE HYDROCHLORIDE] | 5 µM | 1.8 µM | 4 µM | 0.625 µM | 2.85 µM | 0.093 µM
